Assay results: ChEMBL document CHEMBL3885881, “DrugMatrix”

Species: Rattus norvegicus
Experiment: DrugMatrix - Regimen: Daily Repeat
Format: toxicity, organism-based, Sprague-Dawley
Parameters: regimen Daily Repeat, gender Male, age 6-8 weeks
Conditions: in vivo, po, 0 mg/kg, route oral GAVAGE, dose level Control, […]
[1] = 72 h, tissue Plasma, time 3 day
[2] = 120 h, tissue Blood, time 5 day
[3] = 120 h, tissue Plasma, time 5 day

Compound: O=C(O)Cc1ccccc1Nc1c(Cl)cccc1Cl [DICLOFENAC]
- ABSOLUTE BASOPHIL (72 h, tissue Blood, time 3 day): 0 CELLS/uL
- ABSOLUTE EOSINOPHIL (72 h, tissue Blood, time 3 day): 0 CELLS/uL
- ABSOLUTE LYMPHOCYTE (72 h, tissue Blood, time 3 day): 8493 CELLS/uL
- ABSOLUTE MONOCYTE (72 h, tissue Blood, time 3 day): 127 CELLS/uL
- ABSOLUTE SEGMENTED NEUTROPHIL (72 h, tissue Blood, time 3 day): 896.67 CELLS/uL
- BASOPHIL (72 h, tissue Blood, time 3 day): 0%
- EOSINOPHIL (72 h, tissue Blood, time 3 day): 0%
- ERYTHROCYTE COUNT (72 h, tissue Blood, time 3 day): 5.53 x10E6/uL
- HEMATOCRIT (72 h, tissue Blood, time 3 day): 34.07%
- LEUKOCYTE COUNT (72 h, tissue Blood, time 3 day): 9.52 x10E3/uL
- LYMPHOCYTE (72 h, tissue Blood, time 3 day): 89.17%
- MEAN CORPUSCULAR HEMOGLOBIN (72 h, tissue Blood, time 3 day): 24.07 pg
- MEAN CORPUSCULAR HEMOGLOBIN CONCENTRATION (72 h, tissue Blood, time 3 day): 39.03 G/DL
- MEAN CORPUSCULAR VOLUME (72 h, tissue Blood, time 3 day): 61.62 fL
- NEUTROPHIL (72 h, tissue Blood, time 3 day): 9.5%
- NUCLEATED RED BLOOD CELLS (72 h, tissue Blood, time 3 day): 0.17 /100WBC
- PLATELET COUNT (72 h, tissue Blood, time 3 day): 1054.17 x10E3/uL
- ALANINE AMINOTRANSFERASE [1]: 77.67 u/L
- ALBUMIN [1]: 4.08 G/DL
- ALKALINE PHOSPHATASE [1]: 404.5 u/L
- ASPARTATE AMINOTRANSFERASE [1]: 83.17 u/L
- BLOOD UREA NITROGEN [1]: 14.33 mg/dL
- CARBON DIOXIDE [1]: 33.17 mmol/L
- CHLORIDE [1]: 101 MEQ/L
- CHOLESTEROL [1]: 76.33 mg/dL
- CREATINE PHOSPHOKINASE [1]: 184.5 u/L
- CREATININE [1]: 0.13 mg/dL
- LACTATE DEHYDROGENASE [1]: 130.33 u/L
- LIPASE [1]: 11 u/L
- PHOSPHORUS [1]: 9.27 mg/dL
- POTASSIUM [1]: 6.26 MEQ/L
- SODIUM [1]: 143.57 MEQ/L
- TOTAL BILIRUBIN [1]: 0.18 mg/dL
- URIC ACID [1]: 1.38 mg/dL
- ABSOLUTE BASOPHIL [2]: 0 CELLS/uL
- ABSOLUTE EOSINOPHIL [2]: 0 CELLS/uL
- ABSOLUTE LYMPHOCYTE [2]: 8546.17 CELLS/uL
- ABSOLUTE MONOCYTE [2]: 49.5 CELLS/uL
- ABSOLUTE SEGMENTED NEUTROPHIL [2]: 554.33 CELLS/uL
- NUCLEATED RED BLOOD CELLS [2]: 0.17 /100WBC
- CARBON DIOXIDE [3]: 33.17 mmol/L
- CREATININE [3]: 0.18 mg/dL
- LACTATE DEHYDROGENASE [3]: 111.5 u/L
- LIPASE [3]: 9.5 u/L
- URIC ACID [3]: 0.78 mg/dL
- BASOPHIL (tissue Blood, time 28 day): 0.42%
- EOSINOPHIL (tissue Blood, time 28 day): 0.58%
- ERYTHROCYTE COUNT (tissue Blood, time 28 day): 8.06 x10E6/uL
- HEMATOCRIT (tissue Blood, time 28 day): 48.44%
- HEMOGLOBIN (tissue Blood, time 28 day): 16.34 G/DL
- LEUKOCYTE COUNT (tissue Blood, time 28 day): 13.04 x10E3/uL
- LYMPHOCYTE (tissue Blood, time 28 day): 85.12%
- MEAN CORPUSCULAR HEMOGLOBIN (tissue Blood, time 28 day): 20.26 pg
- MEAN CORPUSCULAR HEMOGLOBIN CONCENTRATION (tissue Blood, time 28 day): 33.74 G/DL
- MEAN CORPUSCULAR VOLUME (tissue Blood, time 28 day): 60.1 fL
- NEUTROPHIL (tissue Blood, time 28 day): 11.28%
- PLATELET COUNT (tissue Blood, time 28 day): 1226 x10E3/uL
- ALANINE AMINOTRANSFERASE (tissue Plasma, time 28 day): 28.6 u/L
- ALBUMIN (tissue Plasma, time 28 day): 3.94 G/DL
- ALKALINE PHOSPHATASE (tissue Plasma, time 28 day): 254.6 u/L
- ASPARTATE AMINOTRANSFERASE (tissue Plasma, time 28 day): 67.8 u/L
- BLOOD UREA NITROGEN (tissue Plasma, time 28 day): 10.4 mg/dL
- CHLORIDE (tissue Plasma, time 28 day): 104.6 MEQ/L
- CHOLESTEROL (tissue Plasma, time 28 day): 57.6 mg/dL
